Experimental findings from PMC12282092, “Discovery of a non-nucleoside inhibitor that binds to a novel site in the palm domain of the respiratory syncytial virus RNA-dependent RNA polymerase” (Journal of Virology, 2025) are described below.

pEC50, pIC50: −log10 of the molar value.

For one data set, the system named is HeLa cells. Briefly: HeLa cytotoxicity assay (ATPlite). To be noted: HeLa cells. The procedure: (§1) Compound serial dilutions (9 point, fourfold) were prepared in DMSO, and 200 nL was transferred to black, 384-well, clear-bottom microtiter plates (Corning, Amsterdam, The Netherlands) via acoustic drop ejection ([36], [50]). […] Then, 20 µL of a HeLa cell suspension (3,000 cells/well) was added with a Multidrop Combi, and cells were incubated at 37°C in a 5% CO2 atmosphere. After 72 h, GFP expression was quantified using an EnVision Multimode Plate Reader (Perkin Elmer, Zaventem, Belgium), and data were normalized to untreated and media-only (no virus) controls. Cytotoxicity was determined in parallel using the ATPlite kit (Perkin Elmer, Zaventem, Belgium). Luminescence was measured in white, 384-well microtiter plates (Corning) on a ViewLux uHTS Microplate Imager apparatus (PerkinElmer, Zaventem, Belgium), and cellular ATP content was quantified by normalizing to untreated and media-only (no cell) controls. […] Figures were prepared with GraphPad Prism.

A short description of data set [1]: HeLa cytotoxicity assay (ATPlite). To be noted: human, HeLa cells. As to the method:
as §1

Data set [2] relates to rgRSV224 virus (RSV A2) in HeLa cells. Kind of data set: HeLa cell rgRSV224 eGFP reporter viral proliferation assay. To be noted: human respiratory syncytial virus, RSV eGFP phenotypic assay in HeLa cells; for pEC50: HeLa, 72 h, MOI 1, 72 h, n ≥ 2, read-out: Cellular EC50; for Emax: read-out: Cellular Emax. In kind it is cell-based. The procedure: as §1
Another data set deals with T1, RSV L+P (Human respiratory syncytial virus A, UniProt P28887).
T1 construct: Biochemical activity of 1 and 22 against full-length RSV L+P; Twin-Strep-tag (N); made in house; host or cells: Sf9 insect cells (baculovirus, pFastBac Dual)
Briefly: Pyrophosphate luminescence detection assay, full-length RSV L+P. In kind it is biochemical. To be noted: for pIC50 / Emax: pyrophosphate luminescence detection assay; for pIC50: full-length RSV L+P, n ≥ 2, read-out: Biochemical IC50; for Emax: read-out: Biochemical Emax.

Data set [3] can be described thus: Metabolic stability in liver microsomes. To be noted: in vitro intrinsic clearance in human liver microsomes, n = 1.

T1 sequence (P03421 whole entry): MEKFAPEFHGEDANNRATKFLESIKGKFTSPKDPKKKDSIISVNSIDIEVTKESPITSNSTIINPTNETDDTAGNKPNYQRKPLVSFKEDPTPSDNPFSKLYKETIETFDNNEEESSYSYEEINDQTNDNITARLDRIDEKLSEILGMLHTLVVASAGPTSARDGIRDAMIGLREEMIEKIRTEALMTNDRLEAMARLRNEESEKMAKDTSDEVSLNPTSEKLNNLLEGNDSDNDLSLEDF
T1 sequence (P28887 whole entry): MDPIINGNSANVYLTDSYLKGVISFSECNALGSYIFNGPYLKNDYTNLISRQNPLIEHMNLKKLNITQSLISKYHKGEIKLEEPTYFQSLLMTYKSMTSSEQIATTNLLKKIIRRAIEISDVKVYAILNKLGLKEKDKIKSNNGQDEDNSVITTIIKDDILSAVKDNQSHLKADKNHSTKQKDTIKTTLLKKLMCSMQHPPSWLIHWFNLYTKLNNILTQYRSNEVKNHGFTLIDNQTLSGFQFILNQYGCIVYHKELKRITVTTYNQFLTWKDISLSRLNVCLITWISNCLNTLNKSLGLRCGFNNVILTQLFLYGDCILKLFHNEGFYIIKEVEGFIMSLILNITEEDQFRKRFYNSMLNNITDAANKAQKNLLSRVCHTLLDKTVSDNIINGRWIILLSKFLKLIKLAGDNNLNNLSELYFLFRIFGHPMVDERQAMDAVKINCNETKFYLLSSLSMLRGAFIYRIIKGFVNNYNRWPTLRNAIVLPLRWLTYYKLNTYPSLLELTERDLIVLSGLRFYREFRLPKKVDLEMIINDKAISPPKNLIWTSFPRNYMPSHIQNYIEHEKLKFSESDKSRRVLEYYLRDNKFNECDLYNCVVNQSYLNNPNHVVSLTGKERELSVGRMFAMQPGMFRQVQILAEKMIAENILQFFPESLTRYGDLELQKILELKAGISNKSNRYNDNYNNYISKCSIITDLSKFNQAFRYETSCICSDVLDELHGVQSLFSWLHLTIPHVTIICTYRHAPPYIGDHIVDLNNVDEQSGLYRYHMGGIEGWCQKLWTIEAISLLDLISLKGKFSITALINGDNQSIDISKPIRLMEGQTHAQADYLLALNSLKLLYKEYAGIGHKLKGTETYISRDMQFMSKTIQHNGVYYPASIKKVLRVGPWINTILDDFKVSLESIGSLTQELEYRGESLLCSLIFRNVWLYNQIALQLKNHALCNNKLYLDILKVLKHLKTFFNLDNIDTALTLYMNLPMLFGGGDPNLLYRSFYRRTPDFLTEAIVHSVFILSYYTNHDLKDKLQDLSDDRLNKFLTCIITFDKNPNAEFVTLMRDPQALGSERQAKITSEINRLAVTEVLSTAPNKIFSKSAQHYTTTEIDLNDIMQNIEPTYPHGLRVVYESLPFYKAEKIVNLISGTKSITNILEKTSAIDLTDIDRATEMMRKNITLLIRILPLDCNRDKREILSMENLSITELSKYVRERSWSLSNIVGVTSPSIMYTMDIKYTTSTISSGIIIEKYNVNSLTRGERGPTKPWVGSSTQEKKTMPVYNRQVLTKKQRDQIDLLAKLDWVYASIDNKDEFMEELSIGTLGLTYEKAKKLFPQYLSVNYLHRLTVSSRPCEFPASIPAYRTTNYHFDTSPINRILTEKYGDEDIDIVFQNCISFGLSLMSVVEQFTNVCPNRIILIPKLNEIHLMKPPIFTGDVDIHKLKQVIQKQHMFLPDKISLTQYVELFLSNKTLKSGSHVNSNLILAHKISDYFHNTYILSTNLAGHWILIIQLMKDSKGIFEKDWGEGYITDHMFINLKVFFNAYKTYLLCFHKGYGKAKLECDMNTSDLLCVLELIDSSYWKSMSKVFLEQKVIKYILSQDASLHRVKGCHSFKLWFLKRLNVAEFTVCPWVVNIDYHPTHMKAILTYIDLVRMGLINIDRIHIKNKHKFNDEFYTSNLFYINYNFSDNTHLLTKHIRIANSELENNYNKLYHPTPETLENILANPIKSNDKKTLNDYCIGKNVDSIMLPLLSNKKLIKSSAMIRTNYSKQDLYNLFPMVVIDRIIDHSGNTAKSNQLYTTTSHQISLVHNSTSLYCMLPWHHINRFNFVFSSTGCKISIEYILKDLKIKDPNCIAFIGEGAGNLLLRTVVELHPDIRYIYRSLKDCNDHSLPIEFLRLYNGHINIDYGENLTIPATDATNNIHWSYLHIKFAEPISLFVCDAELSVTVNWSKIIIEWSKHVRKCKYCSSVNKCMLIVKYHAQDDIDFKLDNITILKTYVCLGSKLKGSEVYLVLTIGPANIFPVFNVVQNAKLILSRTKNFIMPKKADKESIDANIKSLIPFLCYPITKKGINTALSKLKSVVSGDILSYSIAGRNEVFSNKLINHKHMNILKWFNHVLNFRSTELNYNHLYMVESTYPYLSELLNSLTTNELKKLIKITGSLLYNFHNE
Experimental for RSV L+P: Working solutions (3×) of RSV L+P (60 nM), substrate (30 µM each of GTP, CTP, UTP, 300 µM ATPαS [Jena Bioscience], 15 µM RNA template TrC-25), detection reagents (6 nM Luciferase, 900 µM luciferin, 3 U/µL ATP Sulfurylase [BioVision], 15 µM adenosine phosphosulfate [APS], 3 mM coenzyme A), were prepared in complete assay buffer. Compounds were dissolved in dimethyl sulfoxide (DMSO) and dispensed to white, 1536-well cyclic olefin copolymer (COC) plates (Corning, 9145BC) using an Echo Acoustic Liquid Handler (Beckman Coulter, San Jose, CA). Substrate (1 µL) and detection reagents (1 µL) were dispensed using a Multidrop Combi Dispenser (ThermoFisher, Waltham, MA), followed by enzyme (1 µL) to initiate the reaction. Final screening concentrations were 20 nM RSV L+P, 10 µM GTP/CTP/UTP, 100 µM ATPαS, 5 µM TrC-25, 2 nM Luciferase (Promega), 300 µM luciferin (Promega), 1 U/µL ATP sulfurylase, 5 µM APS, and 1 mM CoA. […] Luminescence was detected using the PHERAStar FSX (BMG Labtech, Ortenberg, Germany).

Turning to `N#Cc1ncc(N2CCC3(CC2)C(=O)Nc2ccc(Cl)cc23)cc1Cl` [Compound 16, 3-chloro-5-(5-chloro-2-oxospiro[indoline-3,4'-piperidin]-1'-yl)picolinonitrile], the “Cytotoxicity Emax” value in the data set on HeLa cells came to 45.3%. Besides, the CC50 at 72 h in data set [1] was greater than 13 µM. In data set [2], the pEC50 is 5.09 and the Emax worked out at 94.2%. On RSV L+P, the pIC50 is 5.99 and the Emax was found to be 108%. In addition, in data set [3], the “HLM CLint” value was <7.7 µL/min/mg microsomal protein.

Consider `Cc1ccc2c(c1)C1(CCN(c3cnc(C#N)c(Cl)c3)CC1)C(=O)N2` [Compound 17, 3-chloro-5-(5-methyl-2-oxospiro[indoline-3,4'-piperidin]-1'-yl)picolinonitrile], for which, in the data set on HeLa cells, the “Cytotoxicity Emax” value was found to be 8.6%. The compound further returned a CC50 at 72 h in data set [1] greater than 50 µM. For the same compound, in data set [2], the pEC50 was 4.96 and the Emax was 55.1%. For the same compound, at RSV L+P, the pIC50 is 5.76 and the Emax is 111%. Besides, in data set [3], the “HLM CLint” value is reported as 123 µL/min/mg microsomal protein.

Turning to `COc1ccc2c(c1)C1(CCN(c3cnc(C#N)c(Cl)c3)CC1)C(=O)N2` [Compound 18, 3-chloro-5-(5-methoxy-2-oxospiro[indoline-3,4'-piperidin]-1'-yl)picolinonitrile], the “Cytotoxicity Emax” value with HeLa cells stood at 82.4%. In addition, the CC50 at 72 h in data set [1] stood at 24.4 µM. Also, in data set [2], the pEC50 was 4.80 and the Emax is 96.8%. Besides, at RSV L+P, the pIC50 was 5.51 and the Emax was 100%.

Turning to `N#Cc1ncc(N2CCC3(CC2)C(=O)Nc2ccc(F)cc23)cc1Cl` [Compound 19, 3-chloro-5-(5-fluoro-2-oxospiro[indoline-3,4'-piperidin]-1'-yl)picolinonitrile], in the data set with HeLa cells, the “Cytotoxicity Emax” value came to 52.2%. In data set [1], this compound gave a CC50 at 72 h greater than 50 µM. In data set [2], the pEC50 was 5.18 and the Emax came to 99.9%. Besides, on RSV L+P, the pIC50 was 5.57 and the Emax is 106%. In addition, the “HLM CLint” value in data set [3] was 19 µL/min/mg microsomal protein.

Consider `N#Cc1ncc(N2CCC3(CC2)C(=O)Nc2ccccc23)cc1Cl` [Compound 20, 3-chloro-5-(2-oxospiro[indoline-3,4'-piperidin]-1'-yl)picolinonitrile], for which the “Cytotoxicity Emax” value with HeLa cells is 42.9%. Besides, the 50% cytotoxic concentration (CC50) at 72 h in data set [1] is greater than 3.8 µM. In data set [2], the pEC50 is 5.08 and the Emax was found to be 81.4%. The “loss in potency on replacing the bromo substituent with a proton” value at RSV L+P (compared to 1) is listed as 10 fold. Besides, on RSV L+P, the pIC50 is 5.18 and the Emax is 84.7%. Further, the “HLM CLint” value in data set [3] is 19.7 µL/min/mg microsomal protein.

For `N#Cc1ncc(N2CCC3(CC2)C(=O)N(c2cccnc2)c2ccc(F)cc23)cc1Cl` [Compound 21, 3-chloro-5-(5-fluoro-2-oxo-1-(pyridin-3-yl)spiro[indoline-3,4'-piperidin]-1'-yl)picolinonitrile], the “Cytotoxicity Emax” value in the data set on HeLa cells amounted to 44.8%. In data set [1], this compound displayed a CC50 at 72 h greater than 2.71 µM. In addition, in data set [2], the pEC50 is 5.47 and the Emax was found to be 95.8%. Moreover, on RSV L+P, the pIC50 is 6.10 and the Emax amounted to 107%.

As for `CN1C(=O)C2(CCN(c3cnc(C#N)c(Cl)c3)CC2)c2cc(F)ccc21` [Compound 23, 3-chloro-5-(5-fluoro-1-methyl-2-oxospiro[indoline-3,4'-piperidin]-1'-yl)picolinonitrile], in the data set on HeLa cells, the “Cytotoxicity Emax” value is 55.7%. The compound further yielded a CC50 at 72 h in data set [1] greater than 3.74 µM. For the same compound, in data set [2], the pEC50 was 5.44 and the Emax was determined as 93.3%. In addition, on RSV L+P, the Emax amounted to 103%. The “HLM CLint” value in data set [3] was 19 µL/min/mg microsomal protein.

For the compound `N#Cc1ncc(N2CCC3(CC2)C(=O)N(CC2CC2)c2ccc(F)cc23)cc1Cl` [Compound 24, 3-chloro-5-(1-(cyclopropylmethyl)-5-fluoro-2-oxospiro[indoline-3,4'-piperidin]-1'-yl)picolinonitrile], the “Cytotoxicity Emax” value with HeLa cells is 51.8%. Besides, the CC50 at 72 h in data set [1] is greater than 7.77 µM. Besides, the pEC50 in data set [2] is 5.06. Besides, the Emax in data set [2] is 78.3%; at RSV L+P, 89.4%. The “HLM CLint” value in data set [3] was 46.3 µL/min/mg microsomal protein.
